Key:
[1] = system: Rat; assay: concentration in brain after dosing; conditions: 1.5 h; dosed: 2-Methyltetrahydrofuran; 40 mg/kg; iv; Male; Harlan Sprague Dawley
[2] = system: Rat; assay: concentration in plasma after dosing; conditions: 0.2 h; dosed: 2-Methyltetrahydrofuran; 40 mg/kg; iv; Male; Harlan Sprague Dawley
[3] = system: Rat; assay: concentration in plasma after dosing; conditions: 0.5 h; dosed: 2-Methyltetrahydrofuran; 40 mg/kg; iv; Male; Harlan Sprague Dawley
[4] = system: Rat; assay: concentration in brain after dosing; conditions: 0.5 h; dosed: 2-Methyltetrahydrofuran; 40 mg/kg; iv; Male; Harlan Sprague Dawley
[5] = system: Rat; assay: concentration in plasma after dosing; conditions: 4 h; dosed: 2-Methyltetrahydrofuran; 40 mg/kg; iv; Male; Harlan Sprague Dawley
[6] = system: Rat; assay: concentration in brain after dosing; conditions: 4 h; dosed: 2-Methyltetrahydrofuran; 40 mg/kg; iv; Male; Harlan Sprague Dawley
[7] = system: Rat; assay: concentration in plasma after dosing; conditions: dosed: Perfluorohexanoic Acid, 40 mg/kg, oral, Male, Harlan Sprague Dawley
[8] = system: Rat; assay: concentration in brain after dosing; conditions: 0.5 h; dosed: Perfluorohexanoic Acid; 80 mg/kg; oral; Female; Harlan Sprague Dawley
[9] = system: Rat; assay: concentration in brain after dosing; conditions: 1 h; dosed: Perfluorohexanoic Acid; 80 mg/kg; oral; Female; Harlan Sprague Dawley
[10] = system: Rat; assay: concentration in plasma after dosing; conditions: 3 h; dosed: Perfluorohexanoic Acid; 80 mg/kg; oral; Male; Harlan Sprague Dawley
[11] = system: Rat; assay: concentration in plasma after dosing; conditions: 1.5 h; dosed: Perfluorohexanoic Acid; 40 mg/kg; iv; Male; F344
[12] = system: Rat; assay: concentration in plasma after dosing; conditions: dosed: Perfluorohexanoic Acid, 40 mg/kg, oral, Male, Harlan Sprague Dawley; remark: listed apart in the source
[13] = system: Rat; assay: concentration in plasma after dosing; conditions: 2 h; dosed: Gemfibrozil; 50 mg/kg; oral; Male; Sprague-Dawley
[14] = system: Rat; assay: concentration in plasma after dosing; conditions: 15 h; dosed: Gemfibrozil; 50 mg/kg; oral; Male; Sprague-Dawley
[15] = system: Rat; assay: concentration in plasma after dosing; conditions: 15 h; dosed: Gemfibrozil; 4.29 mg/kg; oral; Male; Sprague-Dawley
[16] = system: Rat; assay: concentration in liver after dosing; conditions: 6 h; dosed: Perfluorooctane Sulfonate; 20 mg/kg; oral; Female; F344
[17] = system: Rat; assay: concentration in plasma after dosing; conditions: dosed: Perfluorooctane Sulfonate, 2 mg/kg, iv, Female, Harlan Sprague-Dawley
[18] = system: Rat; assay: concentration in liver after dosing; conditions: 3360 h; dosed: Perfluorooctane Sulfonate; 2 mg/kg; oral; Female; Harlan Sprague Dawley
[19] = system: Rat; assay: concentration in kidney after dosing; conditions: 3360 h; dosed: Perfluorooctane Sulfonate; 2 mg/kg; oral; Female; Harlan Sprague Dawley
[20] = system: Rat; assay: concentration in brain after dosing; conditions: 24 h; dosed: Perfluorooctane Sulfonate; 20 mg/kg; oral; Female; F344
[21] = system: Rat; assay: concentration in liver after dosing; conditions: 864 h; dosed: Perfluorooctane Sulfonate; 2 mg/kg; oral; Female; Harlan Sprague Dawley
[22] = system: Rat; assay: concentration in kidney after dosing; conditions: 3360 h; dosed: Perfluorooctane Sulfonate; 20 mg/kg; oral; Male; Harlan Sprague Dawley
[23] = system: Rat; assay: concentration in kidney after dosing; conditions: 1848 h; dosed: Perfluorooctane Sulfonate; 20 mg/kg; oral; Male; Harlan Sprague Dawley
[24] = system: Rat; assay: concentration in liver after dosing; conditions: 1848 h; dosed: Perfluorooctane Sulfonate; 20 mg/kg; oral; Male; Harlan Sprague Dawley
[25] = system: Rat; assay: concentration in plasma after dosing; conditions: 864 h; dosed: Perfluorooctane Sulfonate; 2 mg/kg; oral; Female; Harlan Sprague Dawley
[26] = system: Rat; assay: concentration in plasma after dosing; conditions: dosed: Fluorotelomer alcohol 8+2, 12 mg/kg, oral, Male, Harlan Sprague Dawley
[27] = system: Rat; assay: concentration in kidney after dosing; conditions: 1 h; dosed: Fluorotelomer alcohol 8+2; 80 mg/kg; oral; Female; Harlan Sprague Dawley
[28] = system: Rat; assay: concentration in kidney after dosing; conditions: 6 h; dosed: Fluorotelomer alcohol 8+2; 80 mg/kg; oral; Female; Harlan Sprague Dawley
[29] = system: Rat; assay: concentration in brain after dosing; conditions: 1 h; dosed: Fluorotelomer alcohol 8+2; 80 mg/kg; oral; Female; Harlan Sprague Dawley
[30] = system: Rat; assay: concentration in plasma after dosing; conditions: dosed: 678-39-7, 12 mg/kg, iv, Male, F344
[31] = system: Rat; assay: concentration in liver after dosing; conditions: 6 h; dosed: Fluorotelomer alcohol 8+2; 24 mg/kg; oral; Male; Harlan Sprague Dawley
[32] = system: Rat; assay: concentration in plasma after dosing; conditions: dosed: Fluorotelomer alcohol 8+2, 12 mg/kg, oral, Male, Harlan Sprague Dawley; remark: listed apart in the source
[33] = system: Rat; assay: concentration in plasma after dosing; conditions: 3 h; dosed: 678-39-7; 12 mg/kg; iv; Male; F344

CC1CCCO1 (stereo not given) [2-Methyltetrahydrofuran]
Conditions	concentration in brain [ng/mL]	concentration in plasma [ng/mL]
[1]	7510	–
[2]	–	37000
[3]	–	25600
[4]	15200	–
[5]	–	1880
[6]	1660	–

O=C(O)C(F)(F)C(F)(F)C(F)(F)C(F)(F)C(F)(F)F [Perfluorohexanoic Acid]
concentration in plasma [ng/mL]
Conditions	0.5 h	3 h	5 min	9 h
[7]	59900	–	–	9200
[12]	–	56400	32900	–

Conditions	concentration in brain [ng/g]	concentration in plasma [ng/mL]
[8]	943	–
[9]	1270	–
[10]	–	76100
[11]	–	175

Cc1ccc(C)c(OCCCC(C)(C)C(=O)O)c1 [Gemfibrozil]
Conditions	concentration in plasma [ng/mL]
[13]	7210
[14]	1550
[15]	285

O=S(=O)([O-])C(F)(F)C(F)(F)C(F)(F)C(F)(F)C(F)(F)C(F)(F)C(F)(F)C(F)(F)F [Perfluorooctane Sulfonate]
Conditions	concentration in brain [ng/g]	concentration in kidney [ng/g]	concentration in liver [ng/g]	concentration in plasma [ng/mL]
[16]	–	–	169000	–
[18]	–	–	2150	–
[19]	–	1070	–	–
[20]	7400	–	–	–
[21]	–	–	8950	–
[22]	–	10400	–	–
[23]	–	10200	–	–
[24]	–	–	51700	–
[25]	–	–	–	1480

[17]
Conditions	concentration in plasma [ng/mL]
5 min	5510
24 h	3580
1200 h	562

O=C(O)CCC(F)(F)C(F)(F)C(F)(F)C(F)(F)C(F)(F)C(F)(F)C(F)(F)F [Fluorotelomer acid 7+3]
Conditions	concentration in plasma [ng/mL]
[26], 0.25 h	41.6
[26], 6 h	841
[30], 3 h	807
[30], 5 min	11.6
[32], 48 h	245
[32], 192 h	25.5

Conditions	concentration in brain [ng/g]	concentration in kidney [ng/g]	concentration in liver [ng/g]	concentration in plasma [ng/mL]
[27]	–	584	–	–
[28]	–	3960	–	–
[29]	252	–	–	–
[31]	–	–	1860	–
[33]	–	–	–	735
